# Laboratory results taken from PMC7643960 (PLoS ONE, 2020).
# Entries after “also recorded” stand apart in the source; their conditions may differ.
# Tests used:
# [1] = test system: EMM cells MelDuWi; test: cell cycle investigation by flow cytometry (propidium iodide); format: cell-based, horse; conditions: double IC50 concentration
# Protocol: (§1) Approximately 7.5 × 10^5 cells (MelDuWi) and 1.0 × 10^6 cells (PriFri2 and sRGO2) were seeded in 25 cm^2 cell culture flasks. […] Following 24 and 48 h of incubation, the cells were harvested by mild trypsinization and washed twice with phosphate-buffered saline (PBS) buffer (containing Mg^2+ and Ca^2+). Cells (1.0 × 10^6) were fixed with ethanol (70%, -20°C, for 24 h). After discarding the ethanol, the cells were washed in 1 mL PBS buffer (containing Mg^2+ and Ca^2+) and were centrifuged. The cell pellet was resuspended in 1 mL of staining PBS buffer (containing Mg^2+ and Ca^2+, 10 μg/mL RNASe [Thermofisher] and 15 μg/mL propidium iodide [Sigma-Aldrich, Munich, Germany]) and was incubated for 30 min at room temperature. Analyses were performed using the Attune® FACS machine (Life Technologies, Darmstadt, Germany) collecting data from the BL-2A channel. Doublet cells were excluded from the measurements by plotting BL-2A against BL-2H. A total of 20,000 events were collected for each cell cycle distribution. Each sample was measured in duplicate.
# [2] = test system: equine dermal fibroblasts PriFri2; test: as above; format: cell-based, horse; conditions: double IC50 concentration
# Protocol: as §1
# [3] = test system: ES cells sRGO2; test: as above; format: cell-based, horse; conditions: double IC50 concentration
# Protocol: as §1
# [4] = test system: primary ES cells sRGO1; test: MTS cytotoxicity assay; format: cell-based, horse; conditions: for IC50: mean (95% CI)
# Protocol: (§2) All cells used for the experiments originate from different horses. Primary EMM cells (MelDuWi) and primary equine dermal fibroblasts (PriFi1, PriFi2) belong to the cell culture stock of the Clinic for Horses, University of Veterinary Medicine Hannover, Foundation, Hannover, Germany.
# (§3) The cytotoxicity of the compounds was assessed by the CellTiter 96® AQueous One Solution Cell Proliferation Assay (MTS) (Promega GmbH, Mannheim, Germany) as reported. In brief, in order to reach cell confluence within 48 h, cells were seeded into 96-well plates in adequate densities (MelDuWi 30,000 cells/well; PriFi1, PriFi2, eRGO1 20,000 cells/well; sRGO1and sRGO2 15,000 cells/well). […] The formazan dye generated by the metabolic active cells was quantified photometrically. Cytotoxicity assays were performed in six to nine biological replicates with two technical replicates for each combination of cell type, incubation time and compound concentration.
# (§4) Technical duplicates with a coefficient of variation of more than 20% were excluded from the cell assay analysis. […] Additional statistical data analysis was conducted with R 3.5.1.. A generalized additive model was fitted for each test (MTS and CVS) and cell type comparison (primary EMM cells and fibroblasts, and primary ES cells and fibroblasts) using the ‘mgcv’ package. Compound concentrations and the duration of incubation were modeled as tensor product smooth interacting with compound and cell line. Cell passage was added as a random effect. An appropriate distribution was selected by the visual inspection of residuals. The p-values were obtained by performing a Wald test for each parameter. Statistical significance was set at 0.05.
# [5] = test system: primary ES cells sRGO2; test: MTS cytotoxicity assay; format: cell-based, horse; conditions: for IC50: mean (95% CI)
# Protocol: as §2, §3, §4
# [6] = test system: primary EMM cells eRGO1; test: MTS cytotoxicity assay; format: cell-based, horse; conditions: for IC50: mean (95% CI)
# Protocol: as §2, §3, §4
# [7] = test system: primary equine dermal fibroblasts PriFi1; test: MTS cytotoxicity assay; format: cell-based, horse; conditions: for IC50: mean (95% CI)
# Protocol: as §2, §3, §4
# [8] = test system: primary EMM cells MelDuWi; test: MTS cytotoxicity assay; format: cell-based, horse; conditions: for IC50: mean (95% CI)
# Protocol: as §2, §3, §4
# [9] = test system: primary equine dermal fibroblasts PriFi2; test: MTS cytotoxicity assay; format: cell-based, horse; conditions: for IC50: mean (95% CI)
# Protocol: as §2, §3, §4
# [10] = test system: horses affected by EMM; parameters: method as in PMID 26772157; conditions: two EMM patients, once a week for 19 consecutive weeks; cited from earlier work
# [11] = test system: EMM cells MelDuWi; conditions: read-out: 96-h IC50 value (sulforhodamine B assay); cited from earlier work
# [12] = test system: mice; conditions: cited from earlier work
compound,measurement,setting,value
"C=C(C)[C@@H]1CC[C@]2(COS(N)(=O)=O)CC[C@]3(C)[C@H](CC[C@@H]4[C@@]5(C)CC[C@H](OS(N)(=O)=O)C(C)(C)[C@@H]5CC[C@]43C)[C@@H]12 [BBS, (3β)-Lup-20(29)-ene-3,28-diol, 3,28-disulfamate]",Cell cycle percentage G1/G0,[1]; 24 h,"68,2%"
same,Cell cycle percentage M,[1]; 24 h,"0,5%"
same,Cell cycle percentage S,[1]; 24 h,"23,9%"
same,Cell cycle percentage SubG1,[1]; 24 h,"6,7%"
same,Cell cycle percentage G1/G0,[1]; 48 h,"48,2%"
same,Cell cycle percentage M,[1]; 48 h,"0,3%"
same,Cell cycle percentage S,[1]; 48 h,"7,6%"
same,Cell cycle percentage G1/G0,"[2]; PriFri2, 24 h","79,1%"
same,Cell cycle percentage M,"[2]; PriFri2, 24 h","1,0%"
same,Cell cycle percentage S,"[2]; PriFri2, 24 h","12,1%"
same,Cell cycle percentage SubG1,"[2]; PriFri2, 24 h","7,1%"
same,Cell cycle percentage G1/G0,"[2]; PriFri2, 48 h","73,7%"
same,Cell cycle percentage M,"[2]; PriFri2, 48 h","0,9%"
same,Cell cycle percentage S,"[2]; PriFri2, 48 h","10,8%"
same,Cell cycle percentage SubG1,"[2]; PriFri2, 48 h","13,7%"
same,Cell cycle percentage G1/G0,"[3]; sRGO2, 24 h","71,9%"
same,Cell cycle percentage M,"[3]; sRGO2, 24 h","1,6%"
same,Cell cycle percentage S,"[3]; sRGO2, 24 h","21,8%"
same,Cell cycle percentage SubG1,"[3]; sRGO2, 24 h","5,3%"
same,Cell cycle percentage G1/G0,"[3]; sRGO2, 48 h","63,2%"
same,Cell cycle percentage M,"[3]; sRGO2, 48 h","1,8%"
same,Cell cycle percentage S,"[3]; sRGO2, 48 h","16,7%"
same,Cell cycle percentage SubG1,"[3]; sRGO2, 48 h","17,5%"
same,IC50,"[4]; sRGO1, 5 h",> 100 µM
same,IC50,"[4]; sRGO1, 48 h",25 µM
same,IC50,"[5]; sRGO2, 5 h",> 100 µM
same,IC50,"[5]; sRGO2, 24 h",45 µM
same,IC50,"[5]; sRGO2, 48 h",28 µM
same,IC50,"[6]; eRGO1, 5 h",> 100 µM
same,IC50,"[6]; eRGO1, 24 h",47 µM
same,IC50,"[6]; eRGO1, 48 h",32 µM
same,IC50,"[6]; eRGO1, 96 h",16 µM
same,IC50,"[7]; PriFi1, 5 h",> 100 µM
same,IC50,"[7]; PriFi1, 24 h",59 µM
same,IC50,"[7]; PriFi1, 48 h",35 µM
same,IC50,"[7]; PriFi1, 96 h",28 µM
same,IC50,[8]; 5 h,> 100 µM
same,IC50,[8]; 24 h,60 µM
same,IC50,[8]; 48 h,53 µM
same,IC50,[8]; 96 h,32 µM
same,IC50,"[9]; PriFi2, 5 h",> 100 µM
same,IC50,"[9]; PriFi2, 24 h",77 µM
same,IC50,"[9]; PriFi2, 48 h",61 µM
same,IC50,"[9]; PriFi2, 96 h",20 µM
"C=C(C)[C@@H]1CC[C@]2(C(=O)OCC(N)(CO)CO)CC[C@]3(C)[C@H](CC[C@@H]4[C@@]5(C)CC[C@H](OC(C)=O)C(C)(C)[C@@H]5CC[C@]43C)[C@@H]12 [NVX-207, 3-acetyl-betulinic acid-2-amino-3-hydroxy-2-hydroxymethyl-propanoate]",Cell cycle percentage G1/G0,[1]; 24 h,"77,4%"
same,Cell cycle percentage M,[1]; 24 h,"0,8%"
same,Cell cycle percentage S,[1]; 24 h,"14,4%"
same,Cell cycle percentage SubG1,[1]; 24 h,"7,1%"
same,Cell cycle percentage G1/G0,[1]; 48 h,"26,8%"
same,Cell cycle percentage M,[1]; 48 h,"0,3%"
same,Cell cycle percentage S,[1]; 48 h,"12,9%"
same,Cell cycle percentage G1/G0,"[2]; PriFri2, 24 h","43,1%"
same,Cell cycle percentage M,"[2]; PriFri2, 24 h","1,3%"
same,Cell cycle percentage S,"[2]; PriFri2, 24 h","10,8%"
same,Cell cycle percentage SubG1,"[2]; PriFri2, 24 h","44,1%"
same,Cell cycle percentage G1/G0,"[2]; PriFri2, 48 h","14,8%"
same,Cell cycle percentage M,"[2]; PriFri2, 48 h","0,1%"
same,Cell cycle percentage S,"[2]; PriFri2, 48 h","2,9%"
same,Cell cycle percentage SubG1,"[2]; PriFri2, 48 h","81,9%"
same,Cell cycle percentage G1/G0,"[3]; sRGO2, 24 h","76,6%"
same,Cell cycle percentage M,"[3]; sRGO2, 24 h","6,4%"
same,Cell cycle percentage S,"[3]; sRGO2, 24 h","15,8%"
same,Cell cycle percentage SubG1,"[3]; sRGO2, 24 h","0,6%"
same,Cell cycle percentage G1/G0,"[3]; sRGO2, 48 h","64,5%"
same,Cell cycle percentage M,"[3]; sRGO2, 48 h","3,9%"
same,Cell cycle percentage S,"[3]; sRGO2, 48 h","13,7%"
same,Cell cycle percentage SubG1,"[3]; sRGO2, 48 h","17,1%"
same,IC50,"[4]; sRGO1, 5 h",9 µM
same,IC50,"[4]; sRGO1, 24 h",4 µM
same,IC50,"[4]; sRGO1, 48 h",2 µM
same,times more cytotoxic than BBS,"[4]; sRGO1, after 48 h, MTS",about 11 times
same,IC50,"[5]; sRGO2, 5 h",8 µM
same,IC50,"[5]; sRGO2, 24 h",3 µM
same,IC50,"[5]; sRGO2, 48 h",1 µM
same,times more cytotoxic than BBS,"[5]; sRGO2, after 48 h, MTS",about 25 times
same,IC50,"[6]; eRGO1, 5 h",9 µM
same,IC50,"[6]; eRGO1, 24 h",7 µM
same,IC50,"[6]; eRGO1, 48 h",4 µM
same,IC50,"[6]; eRGO1, 96 h",< 1 µM
same,times more cytotoxic than BBS,"[6]; eRGO1, after 48 h, MTS",~8 times
same,IC50,"[7]; PriFi1, 5 h",11 µM
same,IC50,"[7]; PriFi1, 24 h",4 µM
same,IC50,"[7]; PriFi1, 48 h",1 µM
same,IC50,"[7]; PriFi1, 96 h",< 1 µM
same,times more cytotoxic than BBS,"[7]; PriFi1, after 48 h, MTS",~34 times
same,IC50,[8]; 24 h,18 µM
same,IC50,[8]; 48 h,15 µM
same,IC50,[8]; 96 h,8 µM
same,times more cytotoxic than BBS,"[8]; after 48 h, MTS",~3 times
same,IC50,"[9]; PriFi2, 5 h",20 µM
same,IC50,"[9]; PriFi2, 24 h",7 µM
same,IC50,"[9]; PriFi2, 96 h",4 µM
same,times more cytotoxic than BBS,"[9]; PriFi2, after 48 h, MTS",~9 times
same,safety of intralesional injection,[10],proved to be safe; also recorded: well tolerated
same,IC50,[11],5.6 µM
same,side effects after intravenous application,[12],did not lead to any side effects
